Measured values published in patent US20020048549A1, “Radioactive transition metal nitride heterocomplex” (priority 1996, published 2002).

Experiment: Retention on Sep-Pak C18 reversed phase column (lipophilicity)
Assay type: physicochemical
Description: Cation exchange resin: Sep-Pak CM (COONa), illpore, anion exchange resin: Sep-Pak QMA (CONH(CH2)3N(CH3)3^+Cl), Millpore, reversed phase column: Sep-Pak C18, Millpore. The complex was retained in an amount of about 95% in the cation exchange resin, about 60% in the anion exchange resin, or 99.5% in the reversed phase column.

Which results are given for COCCC[P+]1(CCCOC)CCN(CCOC)CC[P+](CCCOC)(CCCOC)[99Tc-2]12(#[N])[NH]C(C(=O)N(C)CCCN1c3ccccc3CCc3ccccc31)C[S]2 (centres unmarked) [^99mTcN-DESI]?
amount retained in the reversed phase column: 99.5%; lipophilicity suggested by retention in reversed phase column: high lipophilic
